Common to all, as to format: in vivo
The subject of data set [1] is Lolium perenne (LOLPE). Nature of the data set: Example B6: post application on weeds, LOLPE. The settings on record: 312 h, after 13 days, 100 = total damage, 0 = no damage, read-out: LOLPE damage to plant. The protocol:
(§1) Lolium perenne (LOLPE), Alopecurus myosuroides (ALOMY), Echinochloa crus-galli (ECHCG) and Avena fatua (AVEFA). Activity Against Weeds Seeds of a variety of test species were sown in standard soil in pots. After cultivation for 8 days under controlled conditions in a glasshouse (at 24/16° C., day/night; 14 hours light; 65% humidity), the plants were sprayed with an aqueous spray solution derived from the formulation of the technical active ingredient in acetone/water (50:50) solution containing 0.5% Tween 20 (polyoxyethelyene sorbitan monolaurate, CAS RN 9005-64-5). The test plants were then grown in a glasshouse under controlled conditions in a glasshouse (at 24/16° C., day/night; 14 hours light; 65% humidity) and watered twice daily. After 13 days, the test was evaluated (100=total damage to plant; 0=no damage to plant).

For data set [2], the system named is Alopecurus myosuroides (ALOMY). Nature of the data set: Example B6: post application on weeds, ALOMY. The settings on record: 312 h, after 13 days, 100 = total damage, 0 = no damage, read-out: ALOMY damage to plant. The protocol:
as §1

For data set [3], the system named is Echinochloa crus-galli (ECHCG). Nature of the data set: Example B6: post application on weeds, ECHCG. The settings on record: 312 h, after 13 days, 100 = total damage, 0 = no damage, read-out: ECHCG damage to plant. The protocol:
as §1

The subject of data set [4] is Avena fatua (AVEFA). Briefly: Example B6: post application on weeds, AVEFA. To be noted: 312 h, after 13 days, 100 = total damage, 0 = no damage, read-out: AVEFA damage to plant. The protocol:
as §1

For data set [5], the system named is Lolium perenne (LOLPE). Briefly: Example B7: pre application on weeds, LOLPE. The settings on record: 312 h, pre-emergence spray one day after sowing, evaluated after 13 days, read-out: Pre application on weeds, LOLPE (100=total damage to plant; 0=no damage to plant). The protocol:
as §1, with “one day” for “8 days”

Data set [6] has as its system Alopecurus myosuroides (ALOMY). Briefly: Example B7: pre application on weeds, ALOMY. The settings on record: 312 h, pre-emergence spray one day after sowing, evaluated after 13 days, read-out: Pre application on weeds, ALOMY (100=total damage to plant; 0=no damage to plant). The protocol:
as §1, with “one day” for “8 days”

The test system of data set [7] is Echinochloa crus-galli (ECHCG). Nature of the data set: Example B7: pre application on weeds, ECHCG. The settings on record: 312 h, pre-emergence spray one day after sowing, evaluated after 13 days, read-out: Pre application on weeds, ECHCG (100=total damage to plant; 0=no damage to plant). The protocol: as §1, with “one day” for “8 days”
The subject of data set [8] is Avena fatua (AVEFA). Briefly: Example B7: pre application on weeds, AVEFA. The settings on record: 312 h, pre-emergence spray one day after sowing, evaluated after 13 days, read-out: Pre application on weeds, AVEFA (100=total damage to plant; 0=no damage to plant). The protocol: as §1, with “one day” for “8 days”
The subject of data set [9] is Winter wheat (TRZAW). Nature of the data set: Example B8: post application on wheat, with and without safener cloquintocet-mexyl. To be noted: after 13 days, 100 = total damage, 0 = no damage. The protocol:
Application with Safener (Cloquintocet-Mexyl) Winter wheat seeds with a seed treatment of cloquintocet-mexyl applied at a rate of 0.5 g/kg seeds were sown in standard soil in pots. After cultivation for 8 days under controlled conditions in a glasshouse (at 24/16° C., day/night; 14 hours light; 65% humidity), the plants were sprayed with an aqueous spray solution derived from the formulation of the technical active ingredient in acetone/water (50:50) solution containing 0.5% Tween 20 (polyoxyethelyene sorbitan monolaurate, CAS RN 9005-64-5). The test plants were then grown in a glasshouse under controlled conditions in a glasshouse (at 24/16° C., day/night; 14 hours light; 65% humidity) and watered twice daily. After 13 days, the test was evaluated (100=total damage to plant; 0=no damage to plant).

Where [10] appears, read: 250 g/ha + 0.5 g/kg seeds cloquintocet-mexyl.
[11] abbreviates: 62.5 g/ha + 0.5 g/kg seeds cloquintocet-mexyl.

Results on 6 molecules are retold here after patent publication US9282743B2, “Chemical compounds” (Syngenta Participations AG, priority 2011, dated 2016).

As for `CON1CCn2c(OC(=O)C(C)(C)C)c(-c3c(C)cc(C)cc3C)c(=O)n2CC1` [Compound P1.1, 2,2-Dimethyl-propionic acid 3-methoxy-9-oxo-8-(2,4,6-trimethyl-phenyl)-2,3,4,5-tetrahydro-1H,9H-pyrazolo[1,2-a][1,2,5]triazepin-7-yl ester], the pest or weed control at 250 g/ha in [1] was 100%; in data set [2], 100%; in data set [3], 100%; in data set [4], 100%; in data set [5] it was 100%; in data set [6], 90%. Also, the pest or weed control at 250 g/ha in data set [7] came to 20%; in data set [8], 50%. Also, the “TRZAW damage to plant” value in [9] (setting [10]) stood at 50; in [9] (250 g/ha, without safener), 70.

With `CCOC(=O)Oc1c(-c2c(C)cc(C)cc2C)c(=O)n2n1CCN(OC)CC2` [Compound P1.2, Carbonic acid ethyl ester 3-methoxy-9-oxo-8-(2,4,6-trimethyl-phenyl)-2,3,4,5-tetrahydro-1H,9H-pyrazolo[1,2-a][1,2,5]triazepin-7-yl ester], the pest or weed control at 250 g/ha was 100% in [1]; 50% in [2]; 100% in [3]; 100% in data set [4]; 90% in data set [5]; 80% in [6]. Further, the figures for the pest or weed control at 250 g/ha in data set [7] and in [8] were 40% and 80%, respectively. Besides, the “TRZAW damage to plant” value in data set [9] (setting [10]) is reported as 30; in data set [9] (250 g/ha, without safener) it was 80.

As to `CCOC(=O)Oc1c(-c2c(C)cc(Cl)cc2C)c(=O)n2n1CCN(OC)CC2` [Compound P1.3], the pest or weed control at 250 g/ha in [1] was determined as 60%; in data set [2], 80%; in [3], 60%; in data set [4], 80%; in data set [5] it was 10%; in [6], 0%. Moreover, the values for the pest or weed control at 250 g/ha in data set [7] and in data set [8] were 20% and 0%, respectively. For the same molecule, the “TRZAW damage to plant” value in data set [9] (setting [10]) was found to be 20; in data set [9] (250 g/ha, without safener), 70.

As for `C#Cc1cc(C)cc(C)c1-c1c(OC(=O)OCC)n2n(c1=O)CCN(OC)CC2` [Compound P1.5], the pest or weed control at 250 g/ha in data set [1] came out at 90%; in data set [2] it was 100%; in [3], 100%; in [4], 100%; in data set [5], 30%; in data set [6], 40%. The pest or weed control at 250 g/ha in data set [7] is 20%; in data set [8], 90%. Also, the “TRZAW damage to plant” value in [9] (setting [11]) is reported as 20; in data set [9] (62.5 g/ha, without safener), 80.

Take `CCOC(=O)Oc1c(-c2cc(-c3ccc(Cl)cc3)ccc2C)c(=O)n2n1CCN(OC)CC2` [Compound P1.7]: the pest or weed control at 250 g/ha in [1] was 70%; in [2] it was 70%; in [3], 80%; in data set [4] it was 100%; in data set [5], 0%; in data set [6], 0%. The pest or weed control at 250 g/ha in [7] and in data set [8] was 0% throughout. Moreover, the “TRZAW damage to plant” value is reported as 40 in data set [9] (setting [11]) and 80 in data set [9] (62.5 g/ha, without safener).

Take `C#Cc1cc(C)c(-c2c(OC(=O)OCC)n3n(c2=O)CCN(OC)CC3)c(C)c1` [Compound P1.8]: the pest or weed control at 250 g/ha stood at 40% in data set [1]; 80% in data set [2]; 70% in [3]; 80% in [4]; 0% in [5]; 0% in [6]. Moreover, the pest or weed control at 250 g/ha in [7] and in [8] was 20% each time. For the same molecule, the “TRZAW damage to plant” value in data set [9] (setting [10]) was 20; in data set [9] (250 g/ha, without safener), 60.
